14 molecules from PubChem BioAssay (NCI) can be followed below.

Molecules are shown by their SMILES.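 Values below derive from 48-hour exposures of cells grown in 96-well plates, with endpoints linearly interpolated between the two concentrations bracketing the appropriate inhibition level. GI50 is the concentration that inhibits growth by half. TGI denotes the concentration required for complete inhibition of growth.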

Some test systems named below: NCI-H460 lung; SF-268 CNS; SK-MEL-28 melanoma; EKVX NSCLC; M14 melanoma; 786-0 renal; A498 renal; HOP-62 NSCLC; HT29 colon; MOLT-4 leukemia.
Assay in all cases: DTP human tumour cell line panel, 48 h

A word on the GI50: it is the concentration at which growth is held to half of that of the control. In general, TGI refers to the concentration at which net growth stops. `Oc1ccc(Cl)cc1Cc1cc(Cl)ccc1O`: the GI50 in the experiment with NCI-H460 lung was 3 µM; in the experiment on SF-268 CNS it was 2.81 µM; in the experiment on SK-MEL-28 melanoma it was 3.52 µM; with EKVX NSCLC, 2.65 µM; in the experiment on M14 melanoma, 3.31 µM; in the experiment on 786-0 renal, 3.85 µM. Moreover, the GI50 was 1.98 µM in the experiment with A498 renal, 2.39 µM in the experiment with HOP-62 NSCLC, 3.55 µM in the experiment on HT29 colon and 2.86 µM in the experiment on MOLT-4 leukemia. In addition, the TGI was found to be 10.7 µM with NCI-H460 lung; 11.3 µM in the experiment with SF-268 CNS; 12.6 µM in the experiment with SK-MEL-28 melanoma; 8.84 µM in the experiment on EKVX NSCLC; 10.5 µM with M14 melanoma; 14.3 µM with 786-0 renal. Further, the concentration for total growth inhibition (TGI) with A498 renal is 9.84 µM; in the experiment on HOP-62 NSCLC it was 7.56 µM; with HT29 colon, 10.6 µM; with MOLT-4 leukemia it was 8.83 µM.

For the molecule `COc1cc([N+](=O)[O-])c2ncccc2c1[N+](=O)[O-]`, the GI50 in the experiment on NCI-H460 lung was 6.07 µM; with SF-268 CNS it was 3.72 µM; with SK-MEL-28 melanoma it was 13.2 µM; in the experiment on EKVX NSCLC, 15.4 µM; in the experiment with M14 melanoma, 4.24 µM; with 786-0 renal, 10.7 µM. Besides, the GI50 in the experiment with A498 renal is 12.3 µM; in the experiment on HOP-62 NSCLC it was 11.7 µM; in the experiment with HT29 colon, 2.28 µM; with MOLT-4 leukemia, 4.92 µM. The TGI in the experiment on NCI-H460 lung was determined as 24.6 µM; in the experiment on SF-268 CNS, 15.3 µM; in the experiment with SK-MEL-28 melanoma, 27.1 µM; in the experiment with EKVX NSCLC it was 29.4 µM; with M14 melanoma it was 15.8 µM; with 786-0 renal, 23.3 µM. Further, the TGI was 32 µM with A498 renal, 24.8 µM with HOP-62 NSCLC, 5.52 µM in the experiment on HT29 colon and more than 100 µM with MOLT-4 leukemia.

Consider `CC(=O)Oc1ccc2c(c1)CC[C@@H]1C2CC[C@]2(C)C(=O)NC(=O)CC12` (stereo not given in full), for which the concentration for total growth inhibition (TGI) in the experiment with NCI-H460 lung, in the experiment with SF-268 CNS, with SK-MEL-28 melanoma, with EKVX NSCLC, in the experiment on M14 melanoma and in the experiment on 786-0 renal was more than 100 µM in each case. The TGI with A498 renal, in the experiment on HOP-62 NSCLC, in the experiment on HT29 colon and in the experiment on MOLT-4 leukemia was more than 100 µM each time.

Turning to `Cc1ccc(C(C)C)cc1NC(=O)Nc1ccc([N+](=O)[O-])cc1`, the GI50 with NCI-H460 lung was 2.21 µM; with SF-268 CNS, 2.67 µM; with SK-MEL-28 melanoma, 2.78 µM; in the experiment on EKVX NSCLC, 2.37 µM; in the experiment on M14 melanoma it was 2.45 µM; with 786-0 renal, 2.32 µM. For the same molecule, the GI50 with A498 renal is 1.19 µM; in the experiment on HOP-62 NSCLC, 2.53 µM; with HT29 colon, 3.2 µM; in the experiment on MOLT-4 leukemia, 2.13 µM. Besides, the concentration for total growth inhibition (TGI) is 5.34 µM in the experiment with NCI-H460 lung; 12.1 µM in the experiment with SF-268 CNS; 10.4 µM with SK-MEL-28 melanoma; 8.01 µM with EKVX NSCLC; 7.28 µM with M14 melanoma; 5.29 µM in the experiment with 786-0 renal. In addition, the TGI amounted to 4.45 µM in the experiment with A498 renal, 5.92 µM in the experiment with HOP-62 NSCLC, 10.2 µM in the experiment with HT29 colon and 4.63 µM in the experiment with MOLT-4 leukemia.

In the case of `COc1cnc2cc(C(=O)O)c3ccccc3c2c1`, the TGI with NCI-H460 lung, in the experiment on SF-268 CNS, in the experiment on SK-MEL-28 melanoma, in the experiment with EKVX NSCLC, with M14 melanoma and in the experiment on 786-0 renal was more than 100 µM each time. In addition, the total growth inhibition concentration (TGI) in the experiment on A498 renal, in the experiment with HOP-62 NSCLC, in the experiment with HT29 colon and with MOLT-4 leukemia was more than 100 µM in each case.

Turning to `COC(OC)c1cc2c(cc1C(=O)[C@@]13CCC[C@@H]1NC(=O)O3)OCO2`, the TGI in the experiment on NCI-H460 lung, in the experiment with SF-268 CNS, with SK-MEL-28 melanoma, in the experiment with EKVX NSCLC, in the experiment on M14 melanoma and in the experiment with 786-0 renal was more than 100 µM in each case. Moreover, the TGI in the experiment on A498 renal, with HOP-62 NSCLC, in the experiment on HT29 colon and in the experiment on MOLT-4 leukemia was more than 100 µM in each case.

In the case of `CCSC(SCC)=C1C(=O)N(c2ccccc2)N=C1C`, the TGI turned out to be 29.5 µM in the experiment with NCI-H460 lung; 29.1 µM with SF-268 CNS; 26.5 µM in the experiment with SK-MEL-28 melanoma; 28.5 µM in the experiment on EKVX NSCLC; 29.7 µM in the experiment on M14 melanoma; 27 µM in the experiment with 786-0 renal. For the same molecule, the TGI in the experiment with A498 renal was 28.8 µM; in the experiment with HOP-62 NSCLC it was 53.7 µM; in the experiment with HT29 colon it was 39.4 µM; with MOLT-4 leukemia it was 23.4 µM.

As to `Oc1[nH]c2cc(Cl)ccc2c1/C=c1/ccc2c(c1)N=C(c1cc(F)cc(F)c1)N=2`, the GI50 with NCI-H460 lung was 1.64 µM; in the experiment on SF-268 CNS, 2.35 µM; in the experiment on SK-MEL-28 melanoma, 2.78 µM; in the experiment on EKVX NSCLC it was 5.27 µM; in the experiment on M14 melanoma, 1.52 µM; with 786-0 renal, 3.31 µM. Besides, the GI50 is 1.24 µM in the experiment with A498 renal, 1.35 µM in the experiment with HOP-62 NSCLC, 1.72 µM in the experiment on HT29 colon and 1.45 µM in the experiment on MOLT-4 leukemia. For the same molecule, the TGI worked out at 6.77 µM with NCI-H460 lung; 11.7 µM with SF-268 CNS; 13.6 µM in the experiment with SK-MEL-28 melanoma; 32.4 µM in the experiment on EKVX NSCLC; 3.69 µM with M14 melanoma; 12.8 µM with 786-0 renal. Also, the TGI in the experiment on A498 renal was found to be 6.36 µM; in the experiment on HOP-62 NSCLC, 8.44 µM; in the experiment with HT29 colon, 5.94 µM; in the experiment with MOLT-4 leukemia, 5.72 µM.

Turning to `CC(=O)OC1CC2C(=O)C(=O)C1(C)C2(C)C` (stereo not given), the TGI with NCI-H460 lung, in the experiment on SF-268 CNS, in the experiment on SK-MEL-28 melanoma, with EKVX NSCLC, with M14 melanoma and in the experiment on 786-0 renal was more than 100 µM in each case. In addition, the concentration for total growth inhibition (TGI) in the experiment with A498 renal, in the experiment with HOP-62 NSCLC, in the experiment with HT29 colon and in the experiment on MOLT-4 leukemia was more than 100 µM in each case.

As for `Cc1nc(N)nc2ccccc12`, the TGI in the experiment with NCI-H460 lung, in the experiment with SF-268 CNS, in the experiment on SK-MEL-28 melanoma, with EKVX NSCLC, in the experiment on M14 melanoma and with 786-0 renal was more than 100 µM each time. Also, the TGI in the experiment with A498 renal, in the experiment with HOP-62 NSCLC, with HT29 colon and in the experiment with MOLT-4 leukemia was more than 100 µM throughout.

Consider `CSC1=NCC2(S1)c1ccccc1N(C(=O)OC(C)(C)C)C2N1CCCCC1` (stereo not given), for which the GI50 is 69.6 µM with NCI-H460 lung; 74.4 µM in the experiment on SF-268 CNS; more than 100 µM in the experiment with SK-MEL-28 melanoma; more than 100 µM in the experiment with EKVX NSCLC; more than 100 µM in the experiment on M14 melanoma; 16.2 µM in the experiment on 786-0 renal. The GI50 with A498 renal is more than 100 µM; with HOP-62 NSCLC it was 23.4 µM; with HT29 colon it was more than 100 µM; with MOLT-4 leukemia it was more than 100 µM. Also, the concentration for total growth inhibition (TGI) in the experiment on NCI-H460 lung, in the experiment with SF-268 CNS, with SK-MEL-28 melanoma, with EKVX NSCLC, in the experiment with M14 melanoma and in the experiment on 786-0 renal was more than 100 µM each time. The TGI in the experiment with A498 renal, with HOP-62 NSCLC, in the experiment on HT29 colon and with MOLT-4 leukemia was more than 100 µM in each case.

On to `CC(=O)C1C(=O)N(C(C)C)C[C@@H]2CCC(=O)C[C@H]12` (stereo not given in full), for which the total growth inhibition concentration (TGI) in the experiment with NCI-H460 lung, with SF-268 CNS, in the experiment with SK-MEL-28 melanoma, in the experiment on EKVX NSCLC, in the experiment on M14 melanoma and with 786-0 renal was more than 100 µM each time. Also, the TGI with A498 renal, in the experiment on HOP-62 NSCLC, with HT29 colon and with MOLT-4 leukemia was more than 100 µM throughout.

For `Cc1nc(-n2nc(-c3ccccc3)cc2-c2ccccc2)sc1C(/C=C/c1ccc([N+](=O)[O-])cc1)=N/NC(=O)c1ccncc1`, the concentration for total growth inhibition (TGI) in the experiment with NCI-H460 lung is more than 100 µM; in the experiment with SF-268 CNS, more than 100 µM; in the experiment on SK-MEL-28 melanoma, 99.2 µM; in the experiment with EKVX NSCLC, more than 100 µM; with M14 melanoma, 50.7 µM; in the experiment with 786-0 renal it was 37 µM. Besides, the TGI was more than 100 µM in the experiment with A498 renal, 35 µM with HOP-62 NSCLC, more than 100 µM with HT29 colon and 43.4 µM with MOLT-4 leukemia.

Turning to `CC(NC(=O)c1ccccc1)(C(=O)O)C(=O)O`, the TGI with NCI-H460 lung, in the experiment with SF-268 CNS, with SK-MEL-28 melanoma, in the experiment with EKVX NSCLC, in the experiment on M14 melanoma and in the experiment on 786-0 renal was more than 100 µM throughout. Besides, the TGI in the experiment with A498 renal, in the experiment with HOP-62 NSCLC, in the experiment with HT29 colon and in the experiment on MOLT-4 leukemia was more than 100 µM each time.
